Consider 7 molecules from patent US7531312B2, “Simplified biological evaluation method of natural and artificial chemicals by using DNA injury index and apparatus therefor” (TAS Project Co., Ltd., priority 2000, dated 2009).

Read-outs that look alike come from different tables or passages of the source.

Data set [1] concerns 2′-deoxyguanosine (dG). Nature of the data set: 8OHdG produced from dG in presence of potassium bromate as active oxygen generator (Example 8). Format: biochemical. The note with it: with KBrO3, ultrapure water 2.699.
Data set [2] has as its system 2′-deoxyguanosine (dG). The note with it: KBrO3 30 minutes; for dG: pure water ctrl 1.067; for 8OHdG/dG × 10^−3: pure water ctrl 3.542; for 8OHdG × 10^−3: pure water ctrl 3.779; for Relative initial magnification: pure water ctrl 13.47.
In data set [3] the test system is 2′-deoxyguanosine (dG). Nature of the data set: 8OHdG produced from added dG, standing at room temperature or UV irradiation (Examples 1-7).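 On all read-outs here: Cell-free test: dG in test solution, held at room temperature or exposed to 254 nm UV, then 8OHdG quantified by HPLC with electrochemical detection, compared against dG in ultrapure water.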 The note with it: for evaluation in words: oxidation induction or antioxidant ability toward dG: conclusions of Examples 2-7.
Method: Separately, the amount of 8OHdG after an ultrapure water solution of dG is left to stand under the same conditions as above for a predetermined time is measured (this value is defined as B). If A is greater than B, the test substance is evaluated to have oxidation induction ability and conversely if A is smaller than B, the test substance is evaluated to have antioxidant ability. In either case, it is judged that the greater the difference is, the greater degree of oxidation induction ability or antioxidant capability the test substance has.
Then, 20 μl of 200 μg/ml dG (dissolved in ultrapure water) was added to each well and one of the plates was left to stand as it was at room temperature for 90 minutes and the other plate was irradiated with UV light (254 nm, 860 μW/cm^2) for 90 minutes in a UV light irradiation box. […] Subsequently, nucleosides in the both were quantified by use of the UV light absorption analyzer connected to the HPLC and the electrochemical detector.
Solutions of predetermined concentrations of vitamin C (VC), vitamin E (VE), catechin (Cate) and tannic acid (Tan) were prepared and 180 μl portions were injected into each well of two 99-well plastic plates. Then, 20 μl of 200 μg/ml dG (dissolved in ultrapure water) was added to each well and one of the plates was left to stand as it was at room temperature for 90 minutes and the other plate was irradiated with UV light (254 nm, 860 μW/cm^2) for 90 minutes in a UV light irradiation box.
Then, 20 μl of 200 μg/ml dG (dissolved in ultrapure water) was added to each well and one of the plates was left to stand as it was at room temperature for 90 minutes and another plate was left to stand similarly at room temperature for 24 hours. The remaining three plates were irradiated with UV light (254 nm, 860 μW/cm^2) for 60 minutes, 90 minutes and 120 minutes, respectively, in a UV light irradiation box.
Solutions of predetermined concentrations of glucose (Glu), raffinose (Raffi) and sucrose (Suc) were prepared and 180 μl portions thereof were injected into each well of four 99-well plastic plates. Then, 20 μl of 200 μg/ml dG (dissolved in ultrapure water) was added to each well and one of the plates was left to stand as it was at room temperature for 90 minutes. The remaining three plates were irradiated with UV light (254 nm, 860 μW/cm^2) for 60 minutes, 90 minutes and 120 minutes, respectively, in a UV light irradiation box.
Then, 20 μl of 200 μg/ml dG (dissolved in ultrapure water) was added to each well and one of the plates was left to stand as it was at room temperature for 90 minutes and the other plate was irradiated with UV light (254 nm, 860 μW/cm^2) for 90 minutes in a UV light irradiation box.
Solutions of various concentrations of uric acid (dissolving fluid: distilled water+0.025% FBS) were prepared and 180 μl portions thereof were injected into each well of two 99-well plastic plates. Then, 20 μl of 200 μg/ml dG (dissolved in ultrapure water) was added to each well and one of the plates was left to stand as it was at room temperature for 90 minutes and the other plate was irradiated with UV light (254 nm, 860 μW/cm^2) for 90 minutes in a UV light irradiation box.
The conditions of data set [4]: reported; cited from earlier work.
Data set [5] concerns 2′-deoxyguanosine (dG). Nature of the data set: 8OHdG produced from dG with test substance and coexisting bisphenol A, standing or UV (Example 9). Format: biochemical. The note with it: for effect on 8OHdG with BPA and UV light irradiation: Example 9. As for the experimental part: 170 μl portions of ultrapure water and predetermined concentrations of vitamin C (VC), vitamin E (VE), and glucose (Glu) as test substance were added to each well of two […] plastic plates and, as additional solution, 20 μl of ultrapure water or predetermined concentration of bisphenol A (BPA) were injected into each well.

[6] abbreviates: 5%, Table 3, ultrapure water 0.382.
Where [7] appears, read: 20%, Table 3, ultrapure water 0.382.
Where [8] appears, read: test substance 0.00001%, additional solution BPA (50 ppm), BPA alone 11.58.
Setting [9] is: test substance 0.0001%, additional solution BPA (50 ppm), BPA alone 11.58.
The mark [10] stands for this setting: test substance 0.001%, additional solution BPA (50 ppm), BPA alone 0.22.
Where [11] appears, read: test substance 0.001%, additional solution BPA (50 ppm), BPA alone 11.58.
[12] abbreviates: test substance 0.001%, additional solution ultrapure water.

Consider `O=C([O-])CN(CCN(CC(=O)[O-])CC(=O)[O-])CC(=O)[O-].[Na+].[Na+].[Na+].[Na+]` [EDTA, sodium ethylenediaminetetraacetate], for which the “8OHdG concentration, 30 Minutes' standing” value in data set [1] (1 mM) was determined as 0.784 ng/mL. Further, in data set [2] (1 mM), the dG was 0.997 VS, the “8OHdG/dG × 10^−3” value is 1.101 × 10^−3, the “8OHdG × 10^−3” value is on record as 1.098 mVs and the Relative initial magnification turned out to be 4.19 times.

Consider `OCC(O)CO` [Gly, glycerol], for which the “8OHdG concentration, 30 Minutes' standing” value in data set [1] (10%) came to 1.123 ng/mL. Further, in data set [2] (10%), the dG was 1.044 VS, the “8OHdG/dG × 10^−3” value was 1.506 × 10^−3 and the “8OHdG × 10^−3” value is reported as 1.572 mVs.

`CO` [Meth, methanol]: the “8OHdG concentration, 30 Minutes' standing” value worked out at 2.059 ng/mL in data set [1] (1%) and 1.685 ng/mL in data set [1] (2.5%). In addition, the dG in data set [2] (1%) is 1.04 VS; in data set [2] (5%), 1.054 VS. In addition, the “8OHdG/dG × 10^−3” value in data set [2] (1%) is listed as 2.771 × 10^−3; in data set [2] (5%) it was 2.238 × 10^−3. Also, the “8OHdG × 10^−3” value in data set [2] (5%) came out at 2.359 mVs. Moreover, the “8OHdG concentration, UV irradiation 60 minutes” value in data set [3] (5%, Table 3, ultrapure water 0.231) amounted to 0.181 ng/mL; in data set [3] (20%, Table 3, ultrapure water 0.231), 0.324 ng/mL. The “8OHdG concentration, Standing 24 hours” value in data set [3] (setting [6]) was determined as 0.336 ng/mL; in data set [3] (setting [7]), 0.274 ng/mL. For the same molecule, the “8OHdG concentration, UV irradiation 90 minutes” value amounted to 0.209 ng/mL in data set [3] (setting [6]) and 0.395 ng/mL in data set [3] (setting [7]). Besides, the “8OHdG concentration, UV irradiation 120 minutes” value in data set [3] (5%, Table 3, ultrapure water 0.645) came to 0.332 ng/mL; in data set [3] (20%, Table 3, ultrapure water 0.645), 0.518 ng/mL. Further, the “evaluation in words: oxidation induction or antioxidant ability toward dG” value (“evaluation in words” below) in data set [3] was “potent antioxidant ability”.

In the case of `Oc1c(Cl)c(Cl)c(Cl)c(Cl)c1Cl` [PCP, pentachlorophenol], in data set [4], the safety concentration is 5 mg/kg. Moreover, the “8OHdG concentration, 90 Minutes' standing” value in data set [3] (0.0005 ppm, Table 1, ultrapure water 0.267) was found to be 0.260 ng/mL; in data set [3] (0.005 ppm, Table 1, ultrapure water 0.267), 0.236 ng/mL; in data set [3] (0.05 ppm, Table 1, ultrapure water 0.267), 0.285 ng/mL; in data set [3] (0.5 ppm, Table 1, ultrapure water 0.267), 0.282 ng/mL; in data set [3] (5 ppm, Table 1, ultrapure water 0.267) it was 0.340 ng/mL. Besides, the “8OHdG concentration, 90 Minutes' UV irradiation” value in data set [3] (0.0005 ppm, Table 1, ultrapure water 0.529) came out at 0.585 ng/mL; in data set [3] (0.005 ppm, Table 1, ultrapure water 0.529), 0.451 ng/mL; in data set [3] (0.05 ppm, Table 1, ultrapure water 0.529), 0.431 ng/mL; in data set [3] (0.5 ppm, Table 1, ultrapure water 0.529) it was 0.396 ng/mL; in data set [3] (5 ppm, Table 1, ultrapure water 0.529) it was 5.730 ng/mL. Moreover, the “concentration at which oxidation injury activity due to UV light is elevated (harmfulness increased)” value in data set [3] (Example 1, 90 minutes UV) was determined as 5 ppm.

Regarding `OC[C@H]1O[C@H](OC[C@H]2O[C@H](O[C@]3(CO)O[C@H](CO)[C@@H](O)[C@@H]3O)[C@H](O)[C@@H](O)[C@@H]2O)[C@H](O)[C@@H](O)[C@H]1O` [Raffi, raffinose], the results for the dG in data set [2] (1 mg/ml) and in data set [2] (10 mg/ml) were 0.926 VS and 1.045 VS, respectively. Also, the results for the “8OHdG/dG × 10^−3” value in data set [2] (1 mg/ml) and in data set [2] (10 mg/ml) were 2.513 × 10^−3 and 3.137 × 10^−3, respectively. In addition, the “8OHdG × 10^−3” value worked out at 2.327 mVs in data set [2] (1 mg/ml) and 3.278 mVs in data set [2] (10 mg/ml). The Relative initial magnification in data set [2] (1 mg/ml) turned out to be 9.55 times; in data set [2] (10 mg/ml) it was 11.93 times. In addition, the “8OHdG concentration, 90 Minutes' standing” value in data set [3] (0.1 μg/ml, Table 4, ultrapure water 0.195) was 0.205 ng/mL; in data set [3] (1 μg/ml, Table 4, ultrapure water 0.195), 0.185 ng/mL; in data set [3] (10 μg/ml, Table 4, ultrapure water 0.195), 0.405 ng/mL; in data set [3] (100 μg/ml, Table 4, ultrapure water 0.195), 0.455 ng/mL; in data set [3] (1 mg/ml, Table 4, ultrapure water 0.195), 0.340 ng/mL. Besides, the “8OHdG concentration, UV irradiation 60 minutes” value in data set [3] (0.1 μg/ml, Table 4, ultrapure water 0.392) is 0.375 ng/mL; in data set [3] (1 μg/ml, Table 4, ultrapure water 0.392), 0.304 ng/mL; in data set [3] (10 μg/ml, Table 4, ultrapure water 0.392) it was 0.281 ng/mL; in data set [3] (100 μg/ml, Table 4, ultrapure water 0.392) it was 0.158 ng/mL; in data set [3] (1 mg/ml, Table 4, ultrapure water 0.392) it was 0.115 ng/mL. Further, the “8OHdG concentration, UV irradiation 90 minutes” value came out at 0.689 ng/mL in data set [3] (0.1 μg/ml, Table 4, ultrapure water 0.901); 0.854 ng/mL in data set [3] (1 μg/ml, Table 4, ultrapure water 0.901); 0.626 ng/mL in data set [3] (10 μg/ml, Table 4, ultrapure water 0.901); 0.370 ng/mL in data set [3] (100 μg/ml, Table 4, ultrapure water 0.901); 0.176 ng/mL in data set [3] (1 mg/ml, Table 4, ultrapure water 0.901). Also, the “8OHdG concentration, UV irradiation 120 minutes” value in data set [3] (0.1 μg/ml, Table 4, ultrapure water 1.183) was found to be 1.127 ng/mL; in data set [3] (1 μg/ml, Table 4, ultrapure water 1.183) it was 1.049 ng/mL; in data set [3] (10 μg/ml, Table 4, ultrapure water 1.183) it was 1.314 ng/mL; in data set [3] (100 μg/ml, Table 4, ultrapure water 1.183) it was 0.503 ng/mL; in data set [3] (1 mg/ml, Table 4, ultrapure water 1.183) it was 0.240 ng/mL. Moreover, the “concentration at which antioxidant ability is effective” value in data set [3] (Example 4) was no less than 10 µg/mL. In addition, the “evaluation in words” value in data set [3] is “Glu>Raffi≈Suc”.

In the case of `O=C1O[C@H]([C@@H](O)CO)C(O)=C1O` [VC, ascorbic acid], the “effect on 8OHdG with BPA and UV light irradiation” value in data set [5] was “does not cancel the induction of 8OHdG by BPA”. Also, the “8OHdG concentration, 90 Minutes' UV irradiation” value in data set [5] (setting [8]) was 14.96 ng/mL; in data set [5] (setting [9]) it was 15.95 ng/mL; in data set [5] (setting [11]), 12.53 ng/mL; in data set [5] (setting [12]), 5.75 ng/mL; in data set [3] (0.00001%, Table 2, distilled water 1.23), 0.46 ng/mL; in data set [3] (0.0001%, Table 2, distilled water 1.23) it was 1.51 ng/mL. Moreover, the “8OHdG concentration, 90 Minutes' UV irradiation” value in data set [3] (0.001%, Table 2, distilled water 1.23) turned out to be 38.36 ng/mL. Also, the “8OHdG concentration, 90 Minutes' standing” value in data set [5] (setting [10]) worked out at 1.51 ng/mL; in data set [5] (setting [12]), 16.3 ng/mL; in data set [3] (0.00001%, Table 2, distilled water 0.15), 0.44 ng/mL; in data set [3] (0.0001%, Table 2, distilled water 0.15), 0.63 ng/mL; in data set [3] (0.001%, Table 2, distilled water 0.15), 6.04 ng/mL. Besides, the “evaluation in words” value in data set [3] is “very strong oxidation inducing substance”. The “8OHdG induction on storage” value in data set [3] (stored for a long period added to a dG solution in contact with air) was “a large amount of 8OHdG was induced”.

For `Cc1c(C)c2c(c(C)c1O)CC[C@@](C)(CCC[C@H](C)CCC[C@H](C)CCCC(C)C)O2` [VE, vitamin E], in data set [5], the “effect on 8OHdG with BPA and UV light irradiation” value is “significantly inhibit the increase in 8OHdG”. Moreover, the “8OHdG concentration, 90 Minutes' UV irradiation” value worked out at 15.43 ng/mL in data set [5] (setting [8]); 8.27 ng/mL in data set [5] (setting [9]); 3.79 ng/mL in data set [5] (setting [11]); 0.28 ng/mL in data set [5] (setting [12]); 0.30 ng/mL in data set [3] (0.0005%, Table 2, distilled water 1.23); 0.18 ng/mL in data set [3] (0.005%, Table 2, distilled water 1.23). Further, the “8OHdG concentration, 90 Minutes' UV irradiation” value in data set [3] (0.05%, Table 2, distilled water 1.23) was 0.42 ng/mL. Moreover, the “8OHdG concentration, 90 Minutes' standing” value in data set [5] (setting [10]) stood at 0.29 ng/mL; in data set [5] (setting [12]), 0.18 ng/mL; in data set [3] (0.0005%, Table 2, distilled water 0.15) it was 0.49 ng/mL; in data set [3] (0.005%, Table 2, distilled water 0.15) it was 0.45 ng/mL; in data set [3] (0.05%, Table 2, distilled water 0.15) it was 0.44 ng/mL. Besides, the “evaluation in words” value in data set [3] is reported as “very stable antioxidant”.
